Values of other authors, collected in patent US20080108542A1, “Perfume Compositions” (priority 2005, published 2008).

Settings: 25° C.; data from literature or estimation software

Row | Compound | SVP (saturated vapour pressure) class
1 | CC(=O)OC1CCC(C(C)(C)C)CC1 (centres unmarked) [PARA TERT.BUTYL CYCLOHEXYL ACETATE] | & (SVPs in the range of 25 to 125 micron Hg)
2 | CC(C)CC1CCCC(C)(O)C1 (centres unmarked) [1-METHYL-3-(2-METHYLPROPYL)CYCLOHEXANOL] | & (SVPs in the range of 25 to 125 micron Hg)
3 | CC1=CCC(C(C)(C)O)CC1 (stereo not drawn) [ALPHA-TERPINEOL] | & (SVPs in the range of 25 to 125 micron Hg)
4 | CC1=CC(C)C(C=O)CC1 (centres unmarked) [2,4-DIMETHYL-3-CYCLOHEXENE-1-CARBOXALDEHYDE] | && (SVPs greater than 125 micron Hg)
5 | CCCCCCCCCC(C)C=O (centres unmarked) [2-METHYLUNDECANAL] | & (SVPs in the range of 25 to 125 micron Hg)
6 | CCC(C)(O)CCCC(C)C (centres unmarked) [TETRAHYDROLINALOL] | && (SVPs greater than 125 micron Hg)
7 | CCCCC1OC(C)CC(C)(C)O1 (centres unmarked) [2-BUTYL-4,4,6-TRIMETHYL-1,3-DIOXAN] | && (SVPs greater than 125 micron Hg)
8 | C=CCOC(=O)COCC(C)CC (centres unmarked) [2-METHYLBUTYLOXYACETIC ACID, 2-PROPENYL ESTER] | & (SVPs in the range of 25 to 125 micron Hg)
9 | CCCCCCC1CCCC1=O (centres unmarked) [2-HEXYL-CYCLOPENTANONE] | & (SVPs in the range of 25 to 125 micron Hg)
10 | COC1CC2CC1C1CC=CC21 (centres unmarked) [8-METHOXY-TRICYCLO[5.2.1.0{2,6}]DEC-3-ENE] | && (SVPs greater than 125 micron Hg)
11 | CCCCC/C=C/CCC=O [TRANS-4-DECENAL] | && (SVPs greater than 125 micron Hg)
12 | CC/C=C/CC/C=C/C#N [(2E,6E)-NONA-2,6-DIENENITRILE] | & (SVPs in the range of 25 to 125 micron Hg)
13 | CCOC(=O)C1=C(C)C=CCC1(C)C [ETHYL 2,6,6-TRIMETHYLCYCLOHEXA-1,3-DIENE-1-CARBOXYLATE] | & (SVPs in the range of 25 to 125 micron Hg)
14 | CCCCCCCC1CCCO1 (centres unmarked) [2-N-HEPTYLTETRAHYDROFURAN] | && (SVPs greater than 125 micron Hg)
